Laboratory results reported in patent publication US20100022766A1, “BIOSYNTHETIC GENE CLUSTER FOR THE PRODUCTION OF A COMPLEX POLYKETIDE” (WYETH, priority 2008, published 2010).

B1: GDNF: glial-derived neurotrophic factor, used as control (protein, UniProt P39905 78-211, looked up)
Glial cell line-derived …: SPDKQMAVLPRRERNRQAAAANPENSRGKGRRGQRGKNRGCVLTAIHLNVTDLGLGYETKEELIFRYCSGSCDAAETTYDKILKNLSRNRRLVSDKVGQACCRPIAFDDDLSFLDDNLVYHILRKHSAKRCGCI

Key:
[1] = system: cultured dorsal root ganglia; experiment: total neurite length in cultured dorsal root ganglia; type: cell-based, rat; details: 72 hours
Procedure: Dissociated dorsal root ganglia cultures were prepared as previously described [A. Wood et al., “Stimulation of neurite outgrowth by immunophilin ligands: quantitative analysis by Cellomics Array scan” Society for Neuroscience (2004), abstract 104.31. Briefly, postnatal day 3-5 rat pups were euthanized. The spinal columns were removed and individual dorsal root ganglia (DRG) were dissected out. Dissected DRG were pooled together and transferred to an enzymatic dissociation medium containing papain. After 60 minutes, the tissue was mechanically triturated with a fire-polished glass Pasteur pipette. Single-cell suspensions in complete media were seeded on poly-L-ornithine and laminin coated 96-well plates. After 24 hours, cultures were treated with various concentrations of the compound of formula III for 72 hours. The cultures were then fixed and stained with an anti-tubulin primary antibody (TUJ-1) and a fluorescent-tagged secondary antibody. Neurite outgrowth was determined by using the Enhanced Neurite Outgrowth (ENO) algorithm with the Cellomics ArrayScan and expressed as total neurite length per cell.

cortical neuron cultures = experiment: cortical neuron assay, neurite outgrowth (Cellomics ArrayScan ENO); type: cell-based; details: Rattus norvegicus, Cortical neurone, 72 hours treatment
Procedure: Dissociated cortical neuron cultures were prepared as previously described [Pong et al, “Attenuation of staurosporine-induced apoptosis, oxidative stress, and mitochondrial dysfunction by synthetic superoxide dismutase and catalase mimetics, in cultured cortical neurons”, Exp Neurol. 2001 September; 171(1):84-97.] Briefly, embryonic day 15 rat fetuses were collected and dissected in ice-cold PBS. Dissected cortices were pooled together and transferred to an enzymatic dissociation medium containing papain. After 30 min, the tissue was mechanically triturated with a fire-polished glass Pasteur pipette. Single-cell suspensions in complete media were seeded on poly-L-ornithine and laminin coated 96-well plates. Twenty-four hours later, cultures were treated with various concentrations of compound of formula III for 72 hours. The cultures were then fixed and stained with an anti-tubulin antibody (TUJ-1) and a fluorescent-tagged secondary antibody. Neurite outgrowth was determined by using the Enhanced Neurite Outgrowth (ENO) algorithm with the Cellomics ArrayScan and expressed as average neurite length or neurite length per cell

[2] = system: cultured cortical neurons; experiment: neurofilament content in cultured cortical neurons; type: cell-based, rat; details: 72 hours
Procedure: Dissociated cortical neuron cultures were prepared as previously described [Pong et al., Exp Neurol. 2001 September; 171(1):84-97 (2001)]. Briefly, embryonic day 15 rat fetuses were collected and dissected in ice-cold PBS. Dissected cortices were pooled together and transferred to an enzymatic dissociation medium containing papain. After 30 min, the tissue was mechanically triturated with a fire-polished glass Pasteur pipette. Single-cell suspensions in complete media were seeded on poly-L-ornithine and laminin coated 96-well plates. 24 hours later, cultures were treated with various concentrations of compound of formula (III) for 72 hours. The cultures were then fixed and stained with a neurofilament primary antibody and a peroxidase-tagged secondary antibody. A peroxidase substrate (K-Blue Max) was added and the calorimetric change was measure on a calorimetric plate reader.

[3] = system: cultured cortical neurons; experiment: total neurite length in cultured cortical neurons; type: cell-based, rat; details: 72 hours
Procedure: Dissociated cortical neuron cultures were prepared as previously described (Pong et al., cited above, 2001). Briefly, embryonic day 15 rat fetuses were collected and dissected in ice-cold PBS. Dissected cortices were pooled together and transferred to an enzymatic dissociation medium containing papain. After 30 minutes, the tissue was mechanically triturated with a fire-polished glass Pasteur pipette. Single-cell suspensions in complete media were seeded on poly-L-ornithine and laminin coated 96-well plates. After 24 hours, cultures were treated with various concentrations of the compound of formula III for 72 hours. The cultures were then fixed and stained with an anti-tubulin primary antibody (TU-1) and a fluorescent-tagged secondary antibody. Neurite outgrowth was determined by using the Enhanced Neurite Outgrowth (ENO) algorithm with the Cellomics ArrayScan and expressed as total neurite length per cell.

[4] = system: mesencephalic dopanergic neuron cultures; experiment: high-affinity 3H-DA uptake in ventral mesencephalic cultures, with or without MPP+ exposure; type: cell-based, rat; details: for protection against MPP toxicity: pre-treatment 1 hr or 24 hr, then MPP+ for 1 hr, recovery 24 hr or 48 hr, 3H-DA uptake readout
Procedure: Ventral mesencephalic cultures were prepared from E15 rat embryos and maintained for […] before experimentation according to the method of Pong et al., J Neurochem.
Cultures were then exposed to 10 μM 1-methyl-4-phenylpyridinium (MPP+) for 1 hr, in the presence of drug. After the 1 hr exposure, media was changed 3×, and fresh drug was added for an additional 24 hr or 48 hr.

FKBP12 = FKBP12 (Homo sapiens, UniProt P62942); details: cited from earlier work
Chain of FKBP12 (P62942 whole entry, species assumed): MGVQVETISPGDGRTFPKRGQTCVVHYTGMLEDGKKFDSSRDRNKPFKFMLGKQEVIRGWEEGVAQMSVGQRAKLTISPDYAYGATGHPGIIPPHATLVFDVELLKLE

[5] = cited from earlier work

Row | Molecule | TOTAL NEURITE LENGTH (% ABOVE CONTROL) ([1]; 10 nM) [%] | TOTAL NEURITE LENGTH (% ABOVE CONTROL) ([1]; 100 nM) [%] | TOTAL NEURITE LENGTH (% ABOVE CONTROL) ([1]; 1 μM) [%] | TOTAL NEURITE LENGTH (% ABOVE CONTROL) ([1]; 10 μM) [%] | EC50 (cortical neuron cultures) [nM] | NEUROFILAMENT CONTENT (FOLD-INCREASE ABOVE CONTROL) ([2]; 10 nM) | NEUROFILAMENT CONTENT (FOLD-INCREASE ABOVE CONTROL) ([2]; 100 nM) | NEUROFILAMENT CONTENT (FOLD-INCREASE ABOVE CONTROL) ([2]; 1 μM) | NEUROFILAMENT CONTENT (FOLD-INCREASE ABOVE CONTROL) ([2]; 10 μM) | TOTAL NEURITE LENGTH (% ABOVE CONTROL) ([3]; 10 nM) [%] | TOTAL NEURITE LENGTH (% ABOVE CONTROL) ([3]; 100 nM) [%] | TOTAL NEURITE LENGTH (% ABOVE CONTROL) ([3]; 1 μM) [%] | TOTAL NEURITE LENGTH (% ABOVE CONTROL) ([3]; 10 μM) [%] | protection against MPP toxicity [4] | FKBP12 binding activity (FKBP12) | neuroprotective activity in vitro [5] | DA uptake ([4]; normal cultures, no MPP+)
1 | CC/C1=C\CC(/C(C)=C/C(C)C(C)O)OC(=O)C2CCCCN2C(=O)CC2(O)OC(CCC2C)CC(O)C(C)C(O)CC(O)CC(O)/C(C)=C/C(C)CC(C)C1O (stereo not drawn) [Example 9, C9-deoxomeridamycin] | 17 | 24 | 36 | 64 | < 1000 | 1.9 FOLD-INCREASE ABOVE CONTROL | 2.19 FOLD-INCREASE ABOVE CONTROL | 2.24 FOLD-INCREASE ABOVE CONTROL | 2.29 FOLD-INCREASE ABOVE CONTROL | 10 | 54 | 86 | 121 | – | – | – | –
2 | CC/C1=C\CC(/C(C)=C/C(C)C(C)O)OC(=O)C2CCCCN2C(=O)C(=O)C2(O)OC(CCC2C)CC(O)C(C)C(O)CC(O)CC(O)/C(C)=C/C(C)CC(C)C1O (stereo not drawn) [meridamycin, Meridamycin] | – | – | – | – | – | – | – | – | – | – | – | – | – | partial, but significant protection | strong FKBP12 binding activity | significant neuroprotective activity in vitro | –
3 | B1 | – | – | – | – | – | – | – | – | – | – | – | – | – | partial, but significant protection | – | – | enhanced DA uptake
